Test results reported in patent US6573218B1, “Fused-benzene derivatives useful as herbicides” (Ishihara Sangyo Kaisha, Ltd., priority 1998, dated 2003).

Experiments:
Type in all cases: in vivo
[1] = test system: velvetleaf (Abutilon theophrasti, ABUTH); experiment: Pre-emerge greenhouse herbicide test; details: 250 g ai/ha, 14 days after application, scale 0-100 (0 no damage, 100 complete death)
Outline: (§1)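 Rates from 15 to 1000 g ai/ha, applied in acetone by track sprayer at 187 l/ha, were given either to soil one day after sowing (then watered in) or to foliage at 2–3 leaves with 0.25% v/v surfactant. Damage was rated 0–100 after 14 days.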

[2] = test system: barnyardgrass (Echinochloa crus-galli, ECHCG); experiment: Pre-emerge greenhouse herbicide test; details: 250 g ai/ha, 14 days after application, scale 0-100 (0 no damage, 100 complete death)
Outline: as §1

[3] = test system: johnsongrass (Sorghum halepense, SORHA); experiment: Pre-emerge greenhouse herbicide test; details: 250 g ai/ha, 14 days after application, scale 0-100 (0 no damage, 100 complete death)
Outline: as §1

[4] = test system: sicklepod (Cassia obtusifolia, CASOB); experiment: Pre-emerge greenhouse herbicide test; details: 250 g ai/ha, 14 days after application, scale 0-100 (0 no damage, 100 complete death)
Outline: as §1

[5] = test system: large crabgrass (Digitaria sanguinalis, DIGSA); experiment: Pre-emerge greenhouse herbicide test; details: 250 g ai/ha, 14 days after application, scale 0-100 (0 no damage, 100 complete death)
Outline: as §1

[6] = test system: green foxtail (Setaria viridis, SETVI); experiment: Pre-emerge greenhouse herbicide test; details: 250 g ai/ha, 14 days after application, scale 0-100 (0 no damage, 100 complete death)
Outline: as §1

[7] = test system: ivyleaf morningglory (Ipomoea hederacea, IPOHE); experiment: Pre-emerge greenhouse herbicide test; details: 250 g ai/ha, 14 days after application, scale 0-100 (0 no damage, 100 complete death)
Outline: as §1

[8] = test system: redroot pigweed (Amaranthus retroflexus, AMARE); experiment: Pre-emerge greenhouse herbicide test; details: 250 g ai/ha, 14 days after application, scale 0-100 (0 no damage, 100 complete death)
Outline: as §1

[9] = test system: lambsquarters (Chenopodium album, CHEAL); experiment: Pre-emerge greenhouse herbicide test; details: 250 g ai/ha, 14 days after application, scale 0-100 (0 no damage, 100 complete death)
Outline: as §1

[10] = test system: field corn (Zea mays L., var. Dekalb 527, CORN); experiment: Pre-emerge greenhouse crop damage test
Outline: as §1

[11] = test system: upland rice (Ory0a sp., var.Tebonnet, RICE); experiment: Pre-emerge greenhouse crop damage test; details: in vivo
Outline: as §1

[12] = test system: soybean (Glycine max L., var. Pella 86, SOY); experiment: Pre-emerge greenhouse crop damage test
Outline: as §1

[13] = test system: velvetleaf (Abutilon theophrasti, ABUTH); experiment: Post-emerge greenhouse herbicide test; details: 250 g ai/ha, 14 days after application
Outline: as §1

[14] = test system: barnyardgrass (Echinochloa crus-galli, ECHCG); experiment: Post-emerge greenhouse herbicide test; details: 250 g ai/ha, 14 days after application
Outline: as §1

[15] = test system: johnsongrass (Sorghum halepense, SORHA); experiment: Post-emerge greenhouse herbicide test; details: 250 g ai/ha, 14 days after application
Outline: as §1

[16] = test system: sicklepod (Cassia obtusifolia, CASOB); experiment: Post-emerge greenhouse herbicide test; details: 250 g ai/ha, 14 days after application
Outline: as §1

[17] = test system: common ragweed (Ambrosia artemisiifolia L., AMBEL); experiment: Post-emerge greenhouse herbicide test; details: 250 g ai/ha, 14 days after application
Outline: as §1

[18] = test system: large crabgrass (Digitaria sanguinalis, DIGSA); experiment: Post-emerge greenhouse herbicide test; details: 250 g ai/ha, 14 days after application
Outline: as §1

[19] = test system: green foxtail (Setaria viridis, SETVI); experiment: Post-emerge greenhouse herbicide test; details: 250 g ai/ha, 14 days after application
Outline: as §1

[20] = test system: ivyleaf morningglory (Ipomoea hederacea, IPOHE); experiment: Post-emerge greenhouse herbicide test; details: 250 g ai/ha, 14 days after application
Outline: as §1

[21] = test system: redroot pigweed (Amaranthus retroflexus, AMARE); experiment: Post-emerge greenhouse herbicide test; details: 250 g ai/ha, 14 days after application
Outline: as §1

[22] = test system: lambsquarters (Chenopodium album, CHEAL); experiment: Post-emerge greenhouse herbicide test; details: 250 g ai/ha, 14 days after application
Outline: as §1

[23] = test system: field corn (Zea mays L., var. Dekalb 527, CORN); experiment: Post-emerge greenhouse crop damage test
Outline: as §1

[24] = test system: upland rice (Ory0a sp., var.Tebonnet, RICE); experiment: Post-emerge greenhouse crop damage test
Outline: as §1

[25] = test system: soybean (Glycine max L., var. Pella 86, SOY); experiment: Post-emerge greenhouse crop damage test
Outline: as §1

[26] = var. Dekalb 527, field corn (Zea mays L.), in vivo, 14 days
[27] = var. Tebonnet, upland rice (Ory0a sp.), 14 days
[28] = var. Pella 86, soybean (Glycine max L.), in vivo, 14 days
[29] = var. Tebonnet, upland rice (Ory0a sp.), in vivo, 14 days
[30] = pre-emerge, 250 g ai/ha, 14 days after application, scale 0-100 (0 no damage, 100 complete death)
[31] = 250 g ai/ha, post-emerge, 14 days after application

Structure (SMILES)	Pre-emerge Herbicidal Activity ABUTH (phytotoxicity rating) [1]	Pre-emerge Herbicidal Activity ECHCG (phytotoxicity rating) [2]	Pre-emerge Herbicidal Activity SORHA (phytotoxicity rating) [3]	Pre-emerge Herbicidal Activity CASOB (phytotoxicity rating) [4]	Pre-emerge Herbicidal Activity DIGSA (phytotoxicity rating) [5]	Pre-emerge Herbicidal Activity SETVI (phytotoxicity rating) [6]	Pre-emerge Herbicidal Activity IPOHE (phytotoxicity rating) [7]	Pre-emerge Herbicidal Activity AMARE (phytotoxicity rating) [8]	Pre-emerge Herbicidal Activity CHEAL (phytotoxicity rating) [9]	Pre-emerge Herbicidal Activity CORN (crop damage rating) [10, 26]	Post-emerge Herbicidal Activity ABUTH (phytotoxicity rating 0-100) [13]	Post-emerge Herbicidal Activity ECHCG (phytotoxicity rating 0-100) [14]	Post-emerge Herbicidal Activity SORHA (phytotoxicity rating 0-100) [15]	Post-emerge Herbicidal Activity CASOB (phytotoxicity rating 0-100) [16]	Post-emerge Herbicidal Activity AMBEL (phytotoxicity rating 0-100) [17]	Post-emerge Herbicidal Activity DIGSA (phytotoxicity rating 0-100) [18]	Post-emerge Herbicidal Activity SETVI (phytotoxicity rating 0-100) [19]	Post-emerge Herbicidal Activity IPOHE (phytotoxicity rating 0-100) [20]	Post-emerge Herbicidal Activity AMARE (phytotoxicity rating 0-100) [21]	Post-emerge Herbicidal Activity CHEAL (phytotoxicity rating 0-100) [22]	also measured
COC(=O)CC1CNc2c(c(Cl)cc(F)c2-n2c(=O)cc(C(F)(F)F)n(C)c2=O)O1 (stereo not shown) [Compound 2-8, 3-[8-Chloro-6-fluoro-2-(methoxycarbonyl)methyl-3,4-dihydro-2H-1,4-benzoxazin-5-yl]-1-methyl-6-trifluoromethyl-2,4(1H,3H)-pyrimidindione]	100	60	100	100	100	100	100	100	100	70	100	80	95	50	100	50	100	100	100	100	Pre-emerge Herbicidal Activity RICE (crop damage rating) [11, 27]: 50; Pre-emerge Herbicidal Activity SOY (crop damage rating) [12, 28]: 100; Post-emerge crop damage CORN (phytotoxicity rating 0-100) [23, 26]: 70; Post-emerge crop damage RICE (phytotoxicity rating 0-100) [24, 29]: 90; Post-emerge crop damage SOY (phytotoxicity rating 0-100) [25, 28]: 100
Cc1nc2c(-n3ncc(C(F)(F)F)cc3=O)c(F)cc(Cl)c2o1 [Compound 12-1]	100	100	100	90	100	100	99	100	100		95	50	0	10	20	0	0	40	70	0	Pre-emerge Herbicidal Activity CORN (crop damage rating) [10, 30]: 100; Pre-emerge Herbicidal Activity RICE (crop damage rating) [11]: 90; Pre-emerge Herbicidal Activity SOY (crop damage rating) [12, 30]: 70; Post-emerge crop damage CORN (phytotoxicity rating 0-100) [23, 31]: 0; Post-emerge crop damage RICE (phytotoxicity rating 0-100) [24, 31]: 10; Post-emerge crop damage SOY (phytotoxicity rating 0-100) [25, 31]: 50
CC1Oc2c(Cl)cc(F)c(-c3nn(C)c(OC(F)F)c3Cl)c2NC1=O (stereo not shown) [Compound 10-8, 4-Chloro-3-(8-chloro-6-fluoro-2-methyl-2H-1,4-benzoxazine-3-one-5-yl)-5-difluoromethoxy-1-methyl-i H-pyrazole]	100	100	99	95	100	100	99	100	100		100	100	55	100	95	65	100	100	100	100	Pre-emerge Herbicidal Activity CORN (crop damage rating) [10, 30]: 0; Pre-emerge Herbicidal Activity RICE (crop damage rating) [11]: 40; Pre-emerge Herbicidal Activity SOY (crop damage rating) [12, 30]: 15; Post-emerge crop damage CORN (phytotoxicity rating 0-100) [23, 31]: 25; Post-emerge crop damage RICE (phytotoxicity rating 0-100) [24, 31]: 90; Post-emerge crop damage SOY (phytotoxicity rating 0-100) [25, 31]: 100
Cc1nc2c(-n3c(=O)cc(C(F)(F)F)n(C)c3=O)c(F)cc(Cl)c2oc1=O [Compound 3-1, 3-(8-Chloro-6-fluoro-3-methyl-2H-1,4-benzoxazin-2-one-5-yl)-1-methyl-6-trifluoromethyl-2,4(1H,3H)-pyrimidindione]	100	0	0	0	0	20	0	60	100	0	95	0	0	0	20	0	0	50	70	60	Pre-emerge Herbicidal Activity RICE (crop damage rating) [11, 27]: 0; Pre-emerge Herbicidal Activity SOY (crop damage rating) [12, 28]: 0; Post-emerge crop damage CORN (phytotoxicity rating 0-100) [23, 26]: 0; Post-emerge crop damage RICE (phytotoxicity rating 0-100) [24, 29]: 0; Post-emerge crop damage SOY (phytotoxicity rating 0-100) [25, 28]: 30
